Laboratory results: the supplement of paper PMC10307832

What was measured:
Experiment in all cases: relative viability (nuclei count vs DMSO), 5 days (fraction); higher = more cells survive
[1] = compound: CC1=C(C(=NN1)C)CC2=C(C3=C(S2)N(C(=O)N(C3=O)C)CC(C)C)C(=O)N4C[C@@H](CO4)O + CC(=O)Nc1cccc(-n2c(=O)n(C3CC3)c(=O)c3c(Nc4ccc(I)cc4F)n(C)c(=O)c(C)c32)c1 [Trametinib] (partner 0.02 µM)
In short: (§1)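 Lung cancer cell lines in 1536-well plates were dosed by pin tool the day after seeding, either with one drug alone or with a fixed anchor-drug dose plus five library-drug doses (not always all listed) in √10 steps. After 5 days, cells were fixed and their nuclei stained in one step (final 0.05% Triton X-100, 1% formaldehyde, 1 ug/ml Hoechst), then counted on 4× images. Relative viability is the nuclei count in treated wells divided by that in vehicle wells. Values are medians of duplicate plates.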

IDH-C35 + Navitoclax = compound: Cc1ccccc1C(C(=O)NC1CCCCC1)N(C(=O)Cn1ccnc1C)c1cccc(F)c1 [IDH-C35] + CC1(C)CCC(c2ccc(Cl)cc2)=C(CN2CCN(c3ccc(C(=O)NS(=O)(=O)c4ccc(N[C@H](CCN5CCOCC5)CSc5ccccc5)c(S(=O)(=O)C(F)(F)F)c4)cc3)CC2)C1 [Navitoclax] (partner 0.5 µM)
In short: as §1

IDH-C35 = compound: Cc1ccccc1C(C(=O)NC1CCCCC1)N(C(=O)Cn1ccnc1C)c1cccc(F)c1 [IDH-C35]
In short: (§2)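 After an overnight hold at 37 °C, lung cancer cell lines in 1536-well plates were pinned with five library-drug doses (not always all listed), each √10 from the next, on vehicle-anchored plates. The cells stayed 5 days without fresh medium, then a one-step fix, permeabilisation and Hoechst stain preceded 4× imaging and MetaXpress nuclear counts. A plate passed only with control CV under 25% and at least one doubling. Viability is the median, over plates, of treated-well nuclei relative to vehicle-well nuclei.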

[2] = compound: CC1=C(C(=NN1)C)CC2=C(C3=C(S2)N(C(=O)N(C3=O)C)CC(C)C)C(=O)N4C[C@@H](CO4)O
In short: as §2

Cell Line	relative viability ([1]; first compound 0.0025 µM)	relative viability ([1]; first compound 0.007906 µM)	relative viability ([1]; first compound 0.025 µM)	relative viability ([1]; first compound 0.07906 µM)	relative viability ([1]; first compound 0.25 µM)	relative viability (IDH-C35 + Navitoclax; first compound 0.08 µM)	relative viability (IDH-C35 + Navitoclax; first compound 0.253 µM)	relative viability (IDH-C35 + Navitoclax; first compound 0.8 µM)	relative viability (IDH-C35 + Navitoclax; first compound 2.53 µM)	relative viability (IDH-C35 + Navitoclax; first compound 8 µM)	relative viability (IDH-C35; 0.08 µM)	relative viability (IDH-C35; 0.253 µM)	relative viability (IDH-C35; 0.8 µM)	relative viability (IDH-C35; 2.53 µM)	relative viability (IDH-C35; 8 µM)	relative viability ([2]; 0.0025 µM)	relative viability ([2]; 0.007906 µM)	relative viability ([2]; 0.025 µM)	relative viability ([2]; 0.07906 µM)	relative viability ([2]; 0.25 µM)
SK-LU-1	0.47	0.409	0.326	0.344	0.374	0.788	0.682	0.804	1.01	0.652	1.01	0.986	1.1	1.05	1.01	0.914	0.789	0.634	0.714	0.615
PC-3 [JPC-3]	0.74	0.649	0.718	0.678	0.682	0.789	0.718	0.778	0.858	0.74	1.04	1	1.04	1.08	1.04	1.1	1.05	1.01	1.04	1.07
EMC-BAC-2	0.902	0.904	0.938	0.892	0.986	1.13	1.12	1.15	1.12	1.14	0.962	0.988	1	0.987	1.03	1.07	1.11	0.898	0.995	1.05
NCI-H1299	–	–	–	–	–	1.02	1.08	1.02	1.05	1.03	1.04	0.952	1.01	0.991	1.01	1.01	1	0.952	1.01	1.03
LCLC-103H	0.681	0.689	0.664	0.688	0.661	–	–	–	–	–	0.968	0.957	0.933	1.02	0.913	1.1	1.06	1	0.919	0.973
ABC-1	–	–	–	–	–	–	–	–	–	–	0.953	0.938	0.91	1.03	0.992	0.978	0.921	0.714	0.994	0.902
NCI-H650	1.09	1.01	1.15	0.982	1.04	–	–	–	–	–	0.894	1.2	0.981	–	0.962	0.987	0.91	0.869	0.919	1.06
NCI-H1648	0.593	0.431	0.635	0.356	0.52	–	–	–	–	–	0.756	0.758	0.953	0.761	0.942	1.01	0.971	0.992	0.624	0.678
NCI-H661	0.624	0.59	0.505	0.583	0.56	–	–	–	–	–	0.994	0.971	0.978	0.983	0.91	0.948	0.997	0.956	0.946	0.964
NCI-H1563	–	–	–	–	–	–	–	–	–	–	0.972	0.974	1.01	0.981	0.957	1.06	1.06	0.97	1.07	0.973
A549	–	–	–	–	–	1.19	1.16	1.17	1.22	1.15	1	0.966	0.956	0.918	0.974	1.04	1.11	0.931	0.953	1.04
NCI-H522	0.77	0.768	0.701	0.606	0.657	–	–	–	–	–	1.02	1.07	0.931	0.884	0.99	0.933	1.12	0.735	0.64	0.653
NCI-H1623	–	–	–	–	–	–	–	–	–	–	0.969	0.975	0.95	1	1.04	1.02	0.899	1.01	1.01	0.955
SW 900	0.666	0.951	0.787	0.74	0.8	–	–	–	–	–	0.871	0.849	0.768	0.834	0.897	1.06	1.16	0.835	0.888	0.97
IA-LM	–	–	–	–	–	0.711	0.838	0.798	0.742	0.707	0.947	1.02	0.858	0.887	0.999	0.945	0.998	0.96	1.02	1.07
NCI-H358	0.146	0.125	0.146	0.125	0.129	–	–	–	–	–	0.942	0.984	0.807	0.942	0.919	1.09	0.992	1.01	1.02	0.983
EBC-1	–	–	–	–	–	0.364	0.503	0.52	0.359	0.203	1.05	1.01	0.992	0.981	0.96	1.01	1.07	0.868	1.08	1.05
